Experimental data taken from ChEMBL document CHEMBL4311972, “Discovery of a benzothiophene-flavonol halting miltefosine and antimonial drug resistance in Leishmania parasites through the application of medicinal chemistry, screening and genomics” (Eur J Med Chem, 2019).

Key:
[1] = system: Leishmania infantum; assay: Antileishmanial activity against luciferase expressing intracellular amastigote stage of Leishmania infantum infected in human THP1 cells assessed as parasite growth inhibition measured after 48 to 72 hrs by steady-glo luciferase assay; format: functional, organism-based
[2] = system: Trypanosoma brucei; assay: Antitrypanosomal activity against Trypanosoma brucei bloodstream form assessed as parasite growth inhibition incubated for 72 hrs by resazurin dye based assay; format: functional, organism-based
[3] = Cytotoxicity against human THP1 cells by MTT assay; format: cell-based, THP-1
[4] = biological target: hERG (KCNH2) (Homo sapiens, UniProt Q12809); assay: Inhibition of human ERG at 10 uM incubated for 2 hrs by fluorescence polarization assay relative to control
[5] = biological target: T1, CYP1A2 (Homo sapiens, UniProt P05177); assay: Inhibition of human microsomal CYP1A2 expressed in baculovirus infected insect cells at 10 uM using luciferin-1A2 as substrate preincubated with enzyme/substrate mixture for 30 mins followed by further incubation with NADPH for 30 mins by CYP450 luciferase Glo assay relative to control; format: ADME; conditions: probe luciferin-1A2
T1 sequence (P05177 whole entry): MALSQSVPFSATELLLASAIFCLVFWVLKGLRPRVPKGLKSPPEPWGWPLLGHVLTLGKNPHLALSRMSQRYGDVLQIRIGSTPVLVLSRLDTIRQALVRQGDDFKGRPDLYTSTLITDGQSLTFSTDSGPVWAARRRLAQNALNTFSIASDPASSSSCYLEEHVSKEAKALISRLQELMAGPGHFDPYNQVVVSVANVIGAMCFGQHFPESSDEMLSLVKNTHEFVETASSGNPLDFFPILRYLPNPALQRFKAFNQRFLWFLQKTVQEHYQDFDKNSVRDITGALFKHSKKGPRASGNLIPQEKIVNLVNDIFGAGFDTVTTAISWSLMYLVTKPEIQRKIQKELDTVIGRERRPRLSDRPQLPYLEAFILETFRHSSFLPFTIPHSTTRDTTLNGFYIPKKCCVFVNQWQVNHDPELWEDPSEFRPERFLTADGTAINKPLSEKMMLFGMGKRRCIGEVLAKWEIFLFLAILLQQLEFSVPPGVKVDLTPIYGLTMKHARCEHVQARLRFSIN

[6] = biological target: CYP2C9 (Homo sapiens, UniProt P11712); assay: Inhibition of human microsomal CYP2C9 expressed in baculovirus infected insect cells at 10 uM using luciferin-H as substrate preincubated with enzyme/substrate mixture for 30 mins followed by further incubation with NADPH for 30 mins by CYP450 luciferase Glo assay relative to control; format: ADME; conditions: probe luciferin-H
[7] = biological target: CYP2C19 (Homo sapiens, UniProt P33261); assay: Inhibition of human microsomal CYP2C19 expressed in baculovirus infected insect cells at 10 uM using luciferin-H EGE as substrate preincubated with enzyme/substrate mixture for 30 mins followed by further incubation with NADPH for 30 mins by CYP450 luciferase Glo assay relative to control; format: ADME; conditions: probe luciferin-H EGE
[8] = biological target: CYP2D6 (Homo sapiens, UniProt P10635); assay: Inhibition of human microsomal CYP2D6 expressed in baculovirus infected insect cells at 10 uM using luciferin-ME as substrate preincubated with enzyme/substrate mixture for 30 mins followed by further incubation with NADPH for 30 mins by CYP450 luciferase Glo assay relative to control; format: ADME; conditions: probe luciferin-ME
[9] = biological target: CYP3A4 (Homo sapiens, UniProt P08684); assay: Inhibition of human microsomal CYP3A4 expressed in baculovirus infected insect cells at 10 uM using luciferin-IPA as substrate preincubated with enzyme/substrate mixture for 30 mins followed by further incubation with NADPH for 30 mins by CYP450 luciferase Glo assay relative to control; format: ADME; conditions: probe luciferin-IPA
[10] = Cytotoxicity against human A549 cells assessed as cell growth at […] incubated for 48 hrs by Celltiter-Glo luminescence assay relative to control; format: cell-based; design: dose or concentration left out as unconfirmed; conditions: read-out: Activity
[11] = system: 786-0; assay: Mitochondrial toxicity in human 786-0 cells at 10 uM incubated with compound for 6 hrs followed by incubation with MitoTracker Red chloromethyl-X-rosamine dye for 45 mins by imaging analysis; format: cell-based; conditions: 786-0, 6 h
[12] = Trypanosoma brucei, 72 h, read-out: EC50

Chain of CYP2C9 (P11712 whole entry): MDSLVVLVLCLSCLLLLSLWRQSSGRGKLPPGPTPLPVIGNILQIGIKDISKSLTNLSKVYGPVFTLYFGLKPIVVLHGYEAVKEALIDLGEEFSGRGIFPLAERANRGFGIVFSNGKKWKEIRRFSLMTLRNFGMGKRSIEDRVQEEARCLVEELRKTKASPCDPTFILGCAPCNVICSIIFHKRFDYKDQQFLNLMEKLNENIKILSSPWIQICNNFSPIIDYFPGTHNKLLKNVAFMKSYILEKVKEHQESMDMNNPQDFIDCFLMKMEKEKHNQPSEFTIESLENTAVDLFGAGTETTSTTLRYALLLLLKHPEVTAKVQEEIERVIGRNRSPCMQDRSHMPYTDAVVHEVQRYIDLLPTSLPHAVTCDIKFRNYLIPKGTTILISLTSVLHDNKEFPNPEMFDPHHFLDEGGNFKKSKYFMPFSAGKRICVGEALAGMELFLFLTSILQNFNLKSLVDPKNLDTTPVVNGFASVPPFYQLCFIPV
Chain of hERG (KCNH2) (Q12809 whole entry): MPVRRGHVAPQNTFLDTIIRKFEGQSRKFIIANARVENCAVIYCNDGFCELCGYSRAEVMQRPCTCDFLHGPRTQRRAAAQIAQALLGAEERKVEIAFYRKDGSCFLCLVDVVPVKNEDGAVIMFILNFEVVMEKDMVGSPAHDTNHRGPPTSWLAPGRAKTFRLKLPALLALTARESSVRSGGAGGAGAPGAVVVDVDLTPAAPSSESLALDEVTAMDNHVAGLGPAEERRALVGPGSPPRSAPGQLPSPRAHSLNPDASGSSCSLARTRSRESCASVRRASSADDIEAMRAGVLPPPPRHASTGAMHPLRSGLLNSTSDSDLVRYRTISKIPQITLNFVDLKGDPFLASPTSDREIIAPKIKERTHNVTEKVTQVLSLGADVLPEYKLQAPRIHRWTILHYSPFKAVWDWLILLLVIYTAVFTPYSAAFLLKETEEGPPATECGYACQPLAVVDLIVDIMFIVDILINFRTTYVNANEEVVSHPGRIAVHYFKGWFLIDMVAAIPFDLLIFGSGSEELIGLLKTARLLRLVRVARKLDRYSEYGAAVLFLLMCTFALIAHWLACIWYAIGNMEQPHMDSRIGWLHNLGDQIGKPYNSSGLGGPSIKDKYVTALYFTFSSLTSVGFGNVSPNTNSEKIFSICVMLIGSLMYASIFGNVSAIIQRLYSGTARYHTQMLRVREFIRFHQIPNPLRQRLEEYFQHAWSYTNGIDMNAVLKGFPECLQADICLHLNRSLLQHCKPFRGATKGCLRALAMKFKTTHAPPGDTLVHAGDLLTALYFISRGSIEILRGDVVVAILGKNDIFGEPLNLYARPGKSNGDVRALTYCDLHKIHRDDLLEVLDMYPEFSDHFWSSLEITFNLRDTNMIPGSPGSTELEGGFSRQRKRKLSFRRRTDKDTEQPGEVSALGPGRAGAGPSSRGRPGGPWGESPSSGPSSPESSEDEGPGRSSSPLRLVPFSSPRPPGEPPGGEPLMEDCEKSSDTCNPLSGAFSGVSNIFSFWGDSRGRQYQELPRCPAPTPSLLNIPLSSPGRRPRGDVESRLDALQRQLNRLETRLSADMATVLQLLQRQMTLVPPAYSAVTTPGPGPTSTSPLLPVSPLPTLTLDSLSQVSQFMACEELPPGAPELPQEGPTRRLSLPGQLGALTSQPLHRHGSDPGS
Chain of CYP2D6 (P10635 whole entry): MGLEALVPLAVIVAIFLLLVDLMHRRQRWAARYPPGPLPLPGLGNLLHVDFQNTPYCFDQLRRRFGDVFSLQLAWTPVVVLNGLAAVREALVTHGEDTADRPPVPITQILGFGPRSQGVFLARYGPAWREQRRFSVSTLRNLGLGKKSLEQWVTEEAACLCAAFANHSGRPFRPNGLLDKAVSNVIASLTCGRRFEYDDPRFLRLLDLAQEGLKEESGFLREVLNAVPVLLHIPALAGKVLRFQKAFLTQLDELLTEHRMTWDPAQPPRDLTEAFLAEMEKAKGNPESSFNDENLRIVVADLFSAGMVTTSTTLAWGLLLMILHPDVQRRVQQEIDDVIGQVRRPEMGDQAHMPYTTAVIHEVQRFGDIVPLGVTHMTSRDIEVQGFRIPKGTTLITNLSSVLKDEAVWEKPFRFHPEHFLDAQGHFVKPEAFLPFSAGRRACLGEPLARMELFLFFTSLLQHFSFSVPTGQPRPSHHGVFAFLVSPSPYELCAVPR
Chain of CYP3A4 (P08684 whole entry): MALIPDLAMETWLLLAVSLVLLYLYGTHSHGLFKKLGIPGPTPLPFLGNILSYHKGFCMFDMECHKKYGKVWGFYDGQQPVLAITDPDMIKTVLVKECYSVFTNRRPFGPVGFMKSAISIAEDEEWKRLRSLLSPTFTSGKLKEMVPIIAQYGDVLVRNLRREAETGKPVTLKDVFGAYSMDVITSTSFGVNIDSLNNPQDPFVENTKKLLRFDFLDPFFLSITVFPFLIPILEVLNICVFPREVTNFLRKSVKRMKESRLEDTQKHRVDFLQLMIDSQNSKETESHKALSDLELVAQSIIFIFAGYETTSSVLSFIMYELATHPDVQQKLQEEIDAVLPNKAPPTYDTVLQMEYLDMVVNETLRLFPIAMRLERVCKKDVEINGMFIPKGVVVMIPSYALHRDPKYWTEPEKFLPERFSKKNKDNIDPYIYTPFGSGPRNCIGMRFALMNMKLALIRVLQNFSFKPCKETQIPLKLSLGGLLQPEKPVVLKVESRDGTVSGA
Chain of CYP2C19 (P33261 whole entry): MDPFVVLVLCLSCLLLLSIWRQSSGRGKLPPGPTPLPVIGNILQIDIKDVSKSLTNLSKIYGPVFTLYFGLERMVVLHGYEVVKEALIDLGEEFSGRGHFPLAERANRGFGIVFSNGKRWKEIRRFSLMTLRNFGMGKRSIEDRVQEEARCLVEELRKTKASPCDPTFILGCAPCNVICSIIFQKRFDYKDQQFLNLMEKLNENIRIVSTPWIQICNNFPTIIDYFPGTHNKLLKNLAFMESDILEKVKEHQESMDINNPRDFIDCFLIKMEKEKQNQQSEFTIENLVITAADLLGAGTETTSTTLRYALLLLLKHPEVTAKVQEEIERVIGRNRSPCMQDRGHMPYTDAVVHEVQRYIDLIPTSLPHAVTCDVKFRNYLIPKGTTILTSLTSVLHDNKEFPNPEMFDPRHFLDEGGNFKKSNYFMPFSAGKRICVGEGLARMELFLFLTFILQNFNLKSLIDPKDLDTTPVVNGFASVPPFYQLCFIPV

Row | Structure (SMILES) | EC50 [1] | EC50 [2] | CC50 [3] [µM] | inhibition at 2 h, 10 µM [4] [%] | inhibition at 0.5 h, 10 µM [5] [%] | inhibition at 0.5 h, 10 µM [6] [%] | inhibition at 0.5 h, 10 µM [7] [%] | inhibition at 0.5 h, 10 µM [8] [%] | inhibition at 0.5 h, 10 µM [9] [%] | viability at 48 h [10] [%] | Activity [11] [%] | EC50 [2, 12] [µM]
1 | CCCOc1c(-c2csc3ccccc23)oc2ccc(OC)cc2c1=O | Not Active | Not Active | 12.5 to 25 | 33.9 | 57.2 | 19.6 | 31.7 | 66.5 | 48.2 | 60.1 | 95.63 | –
2 | Cc1ccc2oc(-c3csc4ccccc34)c(O)c(=O)c2c1 | Not Active | – | < 12.5 | -21.6 | 81.3 | 19.4 | 22.4 | 16 | -19.3 | 129 | -21.98 | 2
3 | Cc1ccsc1-c1oc2cc(O)ccc2c(=O)c1O | – | Not Active | 12.5 to 20 | -1.79 | 108 | 43.8 | 57.9 | 24.1 | 73.8 | 83.4 | -3.38 | –
4 | COc1ccc2c(=O)c(O)c(-c3csc4ccccc34)oc2c1 | Not Active | – | 25 to 50 | -4.35 | 90 | 28.1 | 62.3 | 20.3 | 5.81 | 53.9 | -22.67 | 3.1
5 | O=c1c(O)c(-c2csc3ccccc23)oc2cc(F)ccc12 | Not Active | – | 25 to 50 | 11.6 | 80.6 | 26.5 | 24.2 | 23 | 9.54 | 124 | -22.29 | –
6 | COc1ccc2oc(-c3ccco3)c(O)c(=O)c2c1 | – | Not Active | 50 to 100 | -1.31 | 104 | 71.3 | 54.3 | 50.8 | 14.1 | 106 | -0.99 | –
7 | O=c1c(O)c(-c2csc3ccccc23)oc2ccccc12 | Not Active | – | < 25 | -22.7 | 97.7 | 28.9 | 31.3 | 6.45 | -1.84 | 50.3 | -22.23 | 2.6
8 | CCOc1c(-c2csc3ccccc23)oc2ccc(OC)cc2c1=O | Not Active | Not Active | 25 to 50 | 11.8 | 92.4 | 14.1 | 54.5 | 50.2 | 46.9 | 120 | -27.16 | –
9 | CCOc1ccc2c(=O)c(O)c(-c3csc4ccccc34)oc2c1 | Not Active | Not Active | 12.5 to 25 | -3.21 | 81.8 | 23 | 46.1 | 24.7 | 11.5 | 11.9 | 29.51 | –
10 | O=c1c(O)c(-c2ccco2)oc2cc(O)ccc12 | – | Not Active | > 100 | 18.7 | 93.5 | 83.7 | 65.4 | 28.4 | 14.1 | 108 | -1.18 | –
11 | Cc1ccc2c(=O)c(O)c(-c3csc4ccccc34)oc2c1 | Not Active | – | 50 to 100 | -15 | 94.2 | 37 | 39.1 | 28.1 | 13.2 | 50.1 | -19.4 | 4.5
12 | COc1ccc2oc(-c3cn(C)c4ccccc34)c(O)c(=O)c2c1 | – | – | – | 12.7 | 89.2 | -0.02 | -1.53 | 3.57 | 22 | 18.6 | -1.87 | –
13 | COc1ccc2oc(-c3csc4ccccc34)c(OC(=O)N(C)C)c(=O)c2c1 | Not Active | Not Active | 12.5 to 25 | -17.9 | 61.1 | -6.48 | 26.3 | 20.3 | 47.4 | 104 | -42.09 | –
14 | O=c1c(O)c(-c2csc3ccccc23)oc2cc(Cl)ccc12 | Not Active | – | 50 to 100 | 16.3 | 57.5 | 5.82 | -6.35 | -3.33 | -5.72 | -49.6 | 81.33 | 5.34
15 | O=c1c(O)c(-c2ccco2)oc2ccc(O)cc12 | – | Not Active | 20 to 50 | 6.43 | 96.7 | 47.6 | 73.2 | 36.2 | 7.49 | 104 | 4.3 | –
16 | COc1ccc2c(=O)c(O)c(-c3ccco3)oc2c1 | – | Not Active | > 100 | -3.37 | 103 | 46.3 | 68.7 | 23.4 | -0.65 | 102 | -1.6 | –
17 | Cc1csc(-c2oc3cccc(O)c3c(=O)c2O)c1 | – | Not Active | > 100 | 34.2 | 106 | 71.8 | 27.3 | 10.9 | 6.11 | 56.8 | 5.8 | –
18 | COc1ccc2oc(-c3csc4ccccc34)c(OC(=O)C(C)(C)C)c(=O)c2c1 | Not Active | – | 12.5 to 25 | -23.8 | 51.6 | 33.6 | 31.8 | 11.8 | 50.1 | 133 | -47.48 | 3.7
19 | COc1ccc2oc(-c3ccc4ncccc4c3)c(O)c(=O)c2c1 | – | Not Active | > 100 | 16.1 | 27.4 | -3.36 | -8.24 | -15.1 | -3.86 | 101 | -7.05 | –
